In patent US8785630B2, “Insecticidal triazines and pyrimidines” (Vestaron Corporation, priority 2011, dated 2014):

Each compound was assayed on beet armyworm (Spodoptera exigua) (assay: Insecticidal test for beet armyworm, treated diet surface). Conditions: 100 μg/cm^2 on diet surface, first instar larvae, 32 insects per treatment, observations 24, 48 and 96 hours.
Assay type: in vivo
Experimental: The compounds identified in Table 8 were prepared according to the previous methods and were tested against beet armyworm and corn earworm as follows:
Insecticidal Test for Beet Armyworm (Spodoptera exigua).
To prepare the test solution, the test compound was Formulated at 3499 ppm in solution as 5 mg compound/1.429 mL of 9 parts acetone: 1 part deionized H2O and vortexed to homogenize. 50 μL of the 3499 ppm (equivalent to 100 μg/cm^2 dose on diet surface area) test solution was pipetted upon the surface of 1 mL of solidified cool Southland Products Incorporated Beet Armyworm Diet (201 Stuart Island Road Lake Village, Ark. 71653) using an Eppendorf Repeater Plus with a 1 mL pipette tip. All pipetting of treatments was done in a Labconco Hood. Thirty minutes were allowed for the acetone to evaporate leaving a dose of 100 μg/cm^2 on the surface of the artificial diet. Two 24 hour old first instar Beet Armyworm (Spodoptera Exigua) larvae were placed in each well of the 128 well Bio-BA 128 Bioassay trays (CD International, Pitman, N.J., 08071, USA) using a #0 fine camel hair paint brush. Bioassay trays were sectioned into treatment groups of 8 with 16 replicates per treatment group (32 insects per treatment). Trays containing the treated diet and larvae were covered with a Bio-CV-16 cover (CD International, Pitman, N.J., 08071, USA) and then placed on a rack under florescent lights at 27° C., 20% relative humidity (RH) in the room, and 16 hr light: 8 hr dark for 96 hours. Observations were made 24, 48 and 96 hours after treatment and infestation. The number of insects dead were counted out of the 32 insects total per treatment and the results are given in a table as a percent mortality at a dose of 100 μg/cm^2. When finished, the tray was moved to the −5° C. freezer and left for 24 hr to insure mortality of the remaining S. exigua. After 24 hours, dispose of entire tray into waste bin.
Keys to the table: Mortality refers to activity against beet army worm (Spodoptera exigua) as defined above at the concentration of 100 μg/cm^2 (A=76-100% mortality, B=51-75% mortality, C=26-50% mortality and D=0-25% mortality).

SMILES	mortality at 100 µg/cm2 [%]
Fc1cccc(F)c1-c1nc(NN=Cc2ccc(OC(F)(F)F)cc2)nc(Nc2ccc(Cl)cc2)n1 [Example 1, N-(4-chlorophenyl)-4-(2,6-difluorophenyl)-6-(2-(4-(trifluoromethoxy)benzylidene)hydrazinyl)-1,3,5-triazin-2-amine]	76 to 100
FC(F)(F)Oc1ccc(C=NNc2nc(Nc3ccc(Cl)cc3)nc(-c3ccccc3)n2)cc1 [Example 2, N-(4-chlorophenyl)-4-phenyl-6-(2-(4-(trifluoromethoxy)benzylidene)hydrazinyl)-1,3,5-triazin-2-amine]	76 to 100
FC(F)(F)Oc1ccc(C=NNc2nc(Nc3ccc(Cl)cc3)nc(-c3ccc(OC(F)(F)F)cc3)n2)cc1 [Example 3, N-(4-chlorophenyl)-4-(2-(4-(trifluoromethoxy)benzylidene)hydrazinyl)-6-(4-(trifluoromethoxy)phenyl)-1,3,5-triazin-2-amine]	26 to 50
Fc1cccc(Cl)c1-c1nc(NN=Cc2ccc(OC(F)(F)F)cc2)nc(Nc2ccc(Cl)cc2)n1 [Example 4]	76 to 100
Fc1ccc(Nc2nc(NN=Cc3ccc(OC(F)(F)F)cc3)nc(-c3c(F)cccc3F)n2)cc1C(F)(F)F [Example 5, 4-(2,6-difluorophenyl)-N-(4-fluoro-3-(trifluoromethyl)phenyl)-6-(2-(4-(trifluoromethoxy)benzylidene)hydrazinyl)-1,3,5-triazin-2-amine]	26 to 50
Fc1cccc(F)c1-c1nc(NN=Cc2ccc(OC(F)(F)F)cc2)nc(Nc2ccc(OC(F)(F)F)cc2)n1 [Example 6, 4-(2,6-difluorophenyl)-6-(2-(4-(trifluoromethoxy)benzylidene)hydrazinyl)-N-(4-(trifluoromethoxy)phenyl)-1,3,5-triazin-2-amine]	26 to 50
Fc1cccc(F)c1-c1nc(NN=Cc2ccc(OC(F)(F)F)cc2)nc(Nc2cccc(C(F)(F)F)c2)n1 [Example 7, 4-(2,6-difluorophenyl)-6-(2-(4-(trifluoromethoxy)benzylidene)hydrazinyl)-N-(3-(trifluoromethyl)phenyl)-1,3,5-triazin-2-amine]	0 to 25
Fc1cccc(F)c1-c1nc(NCc2ccc(Cl)nc2)nc(NN=Cc2ccc(OC(F)(F)F)cc2)n1 [Example 8, N-((6-chloropyridin-3-yl)methyl)-4-(2,6-difluorophenyl)-6-(2-(4-(trifluoromethoxy)benzylidene)hydrazinyl)-1,3,5-triazin-2-amine]	76 to 100
Fc1cccc(F)c1-c1nc(NN=Cc2ccc(OC(F)(F)F)cc2)nc(Nc2ccc(Cl)nc2)n1 [Example 9, N-(6-chloropyridin-3-yl)-4-(2,6-difluorophenyl)-6-(2-(4-(trifluoromethoxy)benzylidene)hydrazinyl)-1,3,5-triazin-2-amine]	76 to 100
Fc1cccc(F)c1-c1nc(NN=Cc2ccc(OC(F)(F)C(F)F)cc2)nc(Nc2ccc(Cl)cc2)n1 [Example 10, N-(4-chlorophenyl)-4-(2,6-difluorophenyl)-6-(2-(4-(1,1,2,2-tetrafluoroethoxy)benzylidene)hydrazinyl)-1,3,5-triazin-2-amine]	76 to 100
Fc1cccc(Cl)c1-c1nc(NN=Cc2ccc(OC(F)(F)C(F)F)cc2)nc(Nc2ccc(Cl)cc2)n1 [Example 11, 4-(2-chloro-6-fluorophenyl)-N-(4-chlorophenyl)-6-(2-(4-(1,1,2,2-tetrafluoroethoxy)benzylidene)hydrazinyl)-1,3,5-triazin-2-amine]	76 to 100
Fc1cccc(Cl)c1-c1nc(NN=Cc2ccc(OC(F)(F)C(F)F)cc2)nc(Nc2ccc(Cl)nc2)n1 [Example 12, 4-(2-chloro-6-fluorophenyl)-N-(6-chloropyridin-3-yl)-6-(2-(4-(1,1,2,2-tetrafluoroethoxy)benzylidene)hydrazinyl)-1,3,5-triazin-2-amine]	76 to 100
Fc1cccc(Cl)c1-c1nc(NN=Cc2ccc(OC(F)(F)F)cc2)nc(Nc2ccc(Cl)nc2)n1 [Example 13, 4-(2-chloro-6-fluorophenyl)-N-(6-chloropyridin-3-yl)-6-(2-(4-(trifluoromethoxy)benzylidene)hydrazinyl)-1,3,5-triazin-2-amine]	76 to 100
FC(F)(F)Oc1ccc(C=NNc2nc(Nc3ccc(Cl)cc3)nc(-c3c(Cl)cccc3Cl)n2)cc1 [Example 14, N-(4-chlorophenyl)-4-(2,6-dichlorophenyl)-6-(2-(4-(trifluoromethoxy)benzylidene)hydrazinyl)-1,3,5-triazin-2-amine]	51 to 75
Fc1cccc(F)c1-c1nc(NN=Cc2ccc(OC(F)(F)C(F)F)cc2)nc(Nc2ccc(Cl)nc2)n1 [Example 15, N-(6-chloropyridin-3-yl)-4-(2,6-difluorophenyl)-6-(2-(4-(1,1,2,2-tetrafluoroethoxy)benzylidene)hydrazinyl)-1,3,5-triazin-2-amine]	76 to 100
FC(F)(F)Oc1ccc(C=NNc2nc(Nc3ccc(Cl)nc3)nc(-c3c(Cl)cccc3Cl)n2)cc1 [Example 16, N-(6-chloropyridin-3-yl)-4-(2,6-dichlorophenyl)-6-(2-(4-(trifluoromethoxy)benzylidene)hydrazinyl)-1,3,5-triazin-2-amine]	76 to 100
CCc1ccc(C=NNc2nc(Nc3ccc(Cl)cc3)nc(-c3c(F)cccc3Cl)n2)cc1 [Example 17, 4-(2-chloro-6-fluorophenyl)-N-(4-chlorophenyl)-6-(2-(4-ethylbenzylidene)hydrazinyl)-1,3,5-triazin-2-amine]	76 to 100
N#Cc1ccc(C=NNc2nc(Nc3ccc(Cl)cc3)nc(-c3c(F)cccc3Cl)n2)cc1 [Example 18]	76 to 100
CCCC=NNc1nc(Nc2ccc(Cl)cc2)nc(-c2c(F)cccc2Cl)n1 [Example 19, 4-(2-butylidenehydrazinyl)-6-(2-chloro-6-fluorophenyl)-N-(4-chlorophenyl)-1,3,5-triazin-2-amine]	76 to 100
Fc1cccc(Cl)c1-c1nc(NN=CCc2ccccc2)nc(Nc2ccc(Cl)cc2)n1 [Example 20, 4-(2-chloro-6-fluorophenyl)-N-(4-chlorophenyl)-6-(2-(2-phenylethylidene)hydrazinyl)-1,3,5-triazin-2-amine]	76 to 100
CC(=NNc1nc(Nc2ccc(Cl)cc2)nc(-c2c(F)cccc2Cl)n1)c1ccc(OC(F)(F)F)cc1 [Example 21, 4-(2-chloro-6-fluorophenyl)-N-(4-chlorophenyl)-6-(2-(1-(4-(trifluoromethoxy)phenyl)ethylidene)hydrazinyl)-1,3,5-triazin-2-amine]	76 to 100
Fc1cccc(Cl)c1-c1nc(NCc2ccc(Cl)nc2)nc(NN=Cc2ccc(OC(F)(F)F)cc2)n1 [Example 22, 4-(2-chloro-6-fluorophenyl)-N-((6-chloropyridin-3-yl)methyl)-6-(2-(4-(trifluoromethoxy)benzylidene)hydrazinyl)-1,3,5-triazin-2-amine]	76 to 100
Cc1ccc(Nc2nc(NN=Cc3ccc(OC(F)(F)F)cc3)nc(-c3c(F)cccc3Cl)n2)cc1 [Example 23, 4-(2-chloro-6-fluorophenyl)-N-(p-tolyl)-6-(2-(4-(trifluoromethoxy)benzylidene)hydrazinyl)-1,3,5-triazin-2-amine]	76 to 100
